Starred links: 1 amine or outer side, 2 acyl side, 3 side chain; linkers in the order of their positions; H or OH if unused. Non-standard residues stand in square brackets, D forms with d. Residues, ends and D or L forms follow the SMILES beside them. Groups on a side chain read outwards from the residue. *: point of attachment. C20 diacid = O=C(O)CCCCCCCCCCCCCCCCCCC(=O)*; γGlu = O=C(O)[C@H](CCC(=O)[*:2])N[*:1]; NMeY = CN[C@@H](Cc1ccc(O)cc1)C(=O)O

What all share (experiment): NPY receptor functional assay (cAMP, HEK-CNG cells, ACTOne membrane potential dye)
Holding throughout (type): cell-based

One experiment addresses human Y4 receptor (Homo sapiens, UniProt P50391). The following applies: standard PP, species (human or rat) not given. The source says:
(§1) The NPY family of G-protein coupled receptors include Y1, Y2, Y4, and Y5 in humans and rats. […] Following agonist binding, the receptor-G protein complex activates a downstream intracellular signaling cascade which leads to inhibition of adenylate cyclase and a reduction in intracellular cAMP levels.
(§2) HEK-CNG cells stably expressing the human or rat Y1, Y2, Y4 or Y5 receptors (Codex Biosolutions) were used to characterize the functional potency of peptide agonists using the ActOne™ membrane potential dye kit (Codex Biosolutions). In addition to each NPY receptor, each cell line encodes a proprietary exogenous Cyclic Nucleotide-Gated (CNG) channel (Codex Biosolutions). The channel is activated by elevated intracellular levels of cAMP, resulting in ion flux and cell membrane depolarization which can be detected with a calcium sensitive dye or fluorescent membrane potential (MP) dye. Cells were carried in growth media containing 90% DMEM, 10% FBS, 250 mcg/mL G418 and 1 mcg/mL puromycin for no more than 15 passages.
(§3) Prior to testing, cells were counted and dispensed at 14,000 cells per well (Y1, Y4 and Y5) or 28,000 cells per well (Y2) into black 384 well Poly-D-Lysine plates at 20 mcL per well. Covered plates were then incubated at room temperature for 30 minutes followed by an overnight incubation at 37° C. in 5% C02. The following day, media was removed and wells were washed once with 40 mcL Dulbecco's phosphate buffered saline. […] Ten microliters of experimental peptide or peptide standard was added in triplicate to wells and incubated for 50 minutes at room temperature in the dark. Following this incubation step, plates were read again as before (final read).
(§4) NPY receptor activation, leading to a reduction in intracellular cAMP levels, is detected as a decrease in isoproteranol induced fluorescent signal. Peptide standard and experimental values were initially transformed in excel using the formula: final read/initial read. Transformed values were then normalized to receptor specific standard values (1×10−13 M minimum and 1×10−7 M maximum) using the formula: (test value−standard minavg)/(standard maxavg−standard minavg)*100. […] Normalized data was analyzed from triplicate tests and used to estimate the EC50 for each test peptide on each receptor. Data was fit in GraphPad Prism software (v8.2.1) using a 3-parameter logistic curve model: Y=Bottom+(Top−Bottom)/(1+10^((LogEC50−X))). EC50 values were converted to pEC50 values using the formula: pEC50=−Log(EC50).

A further experiment deals with T1, human Y2 receptor (Homo sapiens, UniProt P49146).
T1 sequence (P49146 1-381): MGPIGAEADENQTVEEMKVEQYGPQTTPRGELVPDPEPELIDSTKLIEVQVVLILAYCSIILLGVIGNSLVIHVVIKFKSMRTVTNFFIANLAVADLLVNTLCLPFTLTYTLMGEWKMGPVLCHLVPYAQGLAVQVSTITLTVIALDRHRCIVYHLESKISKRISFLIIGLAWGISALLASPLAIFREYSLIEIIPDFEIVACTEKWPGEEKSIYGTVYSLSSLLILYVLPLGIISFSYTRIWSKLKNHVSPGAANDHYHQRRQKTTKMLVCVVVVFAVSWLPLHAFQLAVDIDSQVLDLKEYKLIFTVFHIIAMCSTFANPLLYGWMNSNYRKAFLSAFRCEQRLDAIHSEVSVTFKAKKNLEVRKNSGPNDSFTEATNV
The settings on record: NPY2R pEC50, HEK-CNG cells; standard PYY(3-36); species (human or rat) not given.
From the text: as §1, §2, §3, §4

The target of another experiment is T2, human Y5 receptor (Homo sapiens, UniProt Q15761).
T2 sequence (Q15761 1-445): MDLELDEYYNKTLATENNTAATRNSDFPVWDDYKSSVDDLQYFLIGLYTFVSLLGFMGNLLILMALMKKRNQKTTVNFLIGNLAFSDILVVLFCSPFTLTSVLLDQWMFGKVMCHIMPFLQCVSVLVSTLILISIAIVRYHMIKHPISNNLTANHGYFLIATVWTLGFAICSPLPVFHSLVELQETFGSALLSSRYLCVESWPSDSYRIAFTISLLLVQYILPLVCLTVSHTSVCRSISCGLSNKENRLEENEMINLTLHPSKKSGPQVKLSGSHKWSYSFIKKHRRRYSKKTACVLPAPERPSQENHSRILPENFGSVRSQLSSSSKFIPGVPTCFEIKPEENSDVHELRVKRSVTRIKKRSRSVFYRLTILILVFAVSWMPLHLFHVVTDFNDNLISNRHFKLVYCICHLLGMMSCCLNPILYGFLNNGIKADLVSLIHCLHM
The settings on record: NPY5R pEC50, HEK-CNG cells; standard NPY; species (human or rat) not given.
From the text: as §1, §2, §3, §4

Chain of human Y4 receptor (P50391 whole entry): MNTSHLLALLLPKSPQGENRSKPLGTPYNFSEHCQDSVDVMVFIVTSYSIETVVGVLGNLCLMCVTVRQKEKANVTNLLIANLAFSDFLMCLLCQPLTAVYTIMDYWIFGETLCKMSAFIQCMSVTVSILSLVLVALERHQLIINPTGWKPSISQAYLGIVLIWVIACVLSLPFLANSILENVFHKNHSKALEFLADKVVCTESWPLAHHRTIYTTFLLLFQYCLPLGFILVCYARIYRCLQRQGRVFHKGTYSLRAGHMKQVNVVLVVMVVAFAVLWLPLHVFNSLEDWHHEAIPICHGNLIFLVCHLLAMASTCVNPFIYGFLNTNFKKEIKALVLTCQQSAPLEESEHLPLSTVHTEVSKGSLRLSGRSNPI

One may read the EC50 as the concentration giving half of the maximal effect. A lower EC50 goes with an effect from little substance. As for `CC(C)C[C@H](NC(=O)[C@H](Cc1ccc(O)cc1)NC(=O)[C@H](Cc1c[nH]cn1)NC(=O)[C@H](CCCNC(=N)N)NC(=O)[C@H](C)NC(=O)[C@H](CC(=O)O)NC(=O)[C@H](C)NC(=O)[C@H](Cc1ccc(O)cc1)NC(=O)[C@H](Cc1ccc(O)cc1)NC(=O)[C@H](CCCNC(=N)N)NC(=O)[C@H](CC(N)=O)NC(=O)[C@H](CC(C)C)NC(=O)[C@H](CCC(=O)O)NC(=O)[C@H](CCC(=O)O)NC(=O)[C@@H]1CCCN1C(=O)[C@H](CO)NC(=O)[C@H](C)NC(=O)[C@H](CC(=O)O)NC(=O)[C@H](CCCCN)NC(=O)[C@H](CCCCNC(=O)CC[C@H](NC(=O)CC[C@H](NC(=O)CCCCCCCCCCCCCCCCCCC(=O)O)C(=O)O)C(=O)O)NC(=O)[C@@H]1CCCN1C(=O)[C@H](C)NC(=O)[C@H](CCC(=O)O)NC(=O)[C@@H]1CCCN1C(=O)[C@H](CCCCN)NC(=O)[C@@H]1CCCN1)C(=O)N[C@@H](CC(N)=O)C(=O)N[C@@H](Cc1c[nH]c2ccccc12)C(=O)N[C@@H](CC(C)C)C(=O)N[C@H](C(=O)N[C@@H](CCCNC(=N)N)C(=O)N[C@@H](CCC(N)=O)C(=O)N[C@@H](CCCNC(=N)N)C(=O)N(C)[C@@H](Cc1ccc(O)cc1)C(N)=O)[C@@H](C)O` [Compound A63] (H-PKPEAPK([γGlu-γGlu-C20 diacid])KDASPEELNRYYADARHYLNWLTRQR[NMeY]-NH2; N-terminus assumed), the “NPY4R pEC50” value at human Y4 receptor was “inactive”. Also, the EC50 on human Y2 receptor was 31.6 nM. For the molecule `CC(C)C[C@H](NC(=O)[C@H](CC(=O)O)NC(=O)[C@H](C)NC(=O)[C@H](Cc1ccc(O)cc1)NC(=O)[C@H](Cc1ccc(O)cc1)NC(=O)[C@H](CCCNC(=N)N)NC(=O)[C@H](CC(N)=O)NC(=O)[C@H](Cc1c[nH]c2ccccc12)NC(=O)[C@H](CCC(=O)O)NC(=O)[C@H](CCC(=O)O)NC(=O)[C@@H]1CCCN1C(=O)[C@H](CO)NC(=O)[C@H](C)NC(=O)[C@H](CC(=O)O)NC(=O)[C@H](CCCCN)NC(=O)CNC(=O)[C@@H]1CCCN1C(=O)[C@H](C)NC(=O)[C@H](CCC(=O)O)NC(=O)[C@@H]1CCCN1C(=O)[C@H](CCCCN)NC(=O)[C@@H]1CCCN1)C(=O)N[C@@H](CCCNC(=N)N)C(=O)N[C@@H](Cc1c[nH]cn1)C(=O)N[C@@H](Cc1ccc(O)cc1)C(=O)N[C@@H](CC(C)C)C(=O)N[C@@H](CC(N)=O)C(=O)N[C@@H](Cc1c[nH]c2ccccc12)C(=O)N[C@@H](CC(C)C)C(=O)N[C@H](C(=O)N[C@@H](CCCNC(=N)N)C(=O)N[C@@H](CCCCNC(=O)CC[C@H](NC(=O)CC[C@H](NC(=O)CCCCCCCCCCCCCCCCCCC(=O)O)C(=O)O)C(=O)O)C(=O)N[C@@H](CCCNC(=N)N)C(=O)N[C@@H](Cc1ccccc1)C(N)=O)[C@@H](C)O` [Compound A50], the “NPY4R pEC50” value on human Y4 receptor is “inactive”. As to `CC(C)C[C@H](NC(=O)[C@H](CC(=O)O)NC(=O)[C@H](C)NC(=O)[C@H](Cc1ccc(O)cc1)NC(=O)[C@H](Cc1ccc(O)cc1)NC(=O)[C@H](CCCNC(=N)N)NC(=O)[C@H](CC(N)=O)NC(=O)[C@H](Cc1c[nH]c2ccccc12)NC(=O)[C@H](CCC(=O)O)NC(=O)[C@H](CCC(=O)O)NC(=O)[C@@H]1CCCN1C(=O)[C@H](CO)NC(=O)[C@H](C)NC(=O)[C@H](CC(=O)O)NC(=O)[C@H](CCCCN)NC(=O)CNC(=O)[C@@H]1CCCN1C(=O)[C@H](C)NC(=O)[C@H](CCC(=O)O)NC(=O)[C@@H]1CCCN1C(=O)[C@H](CCCCN)NC(=O)[C@@H]1CCCN1)C(=O)N[C@@H](CCCNC(=N)N)C(=O)N[C@@H](Cc1c[nH]cn1)C(=O)N[C@@H](Cc1ccc(O)cc1)C(=O)N[C@@H](CC(C)C)C(=O)N[C@@H](CCCCNC(=O)CC[C@H](NC(=O)CC[C@H](NC(=O)CCCCCCCCCCCCCCCCCCC(=O)O)C(=O)O)C(=O)O)C(=O)N[C@@H](Cc1c[nH]c2ccccc12)C(=O)N[C@@H](CC(C)C)C(=O)N[C@H](C(=O)N[C@@H](CCCNC(=N)N)C(=O)N[C@@H](CCC(N)=O)C(=O)N[C@@H](CCCNC(=N)N)C(=O)N[C@@H](Cc1ccccc1)C(N)=O)[C@@H](C)O` [Compound A51], the “NPY4R pEC50” value at human Y4 receptor was “inactive”. As for `CC(C)C[C@H](NC(=O)[C@H](Cc1ccc(O)cc1)NC(=O)[C@H](Cc1c[nH]cn1)NC(=O)[C@H](CCCNC(=N)N)NC(=O)[C@H](C)NC(=O)[C@H](CC(=O)O)NC(=O)[C@H](C)NC(=O)[C@H](Cc1ccc(O)cc1)NC(=O)[C@H](Cc1ccc(O)cc1)NC(=O)[C@H](CCCNC(=N)N)NC(=O)[C@H](CCCCNC(=O)CC[C@H](NC(=O)CC[C@H](NC(=O)CCCCCCCCCCCCCCCCCCC(=O)O)C(=O)O)C(=O)O)NC(=O)[C@H](Cc1c[nH]c2ccccc12)NC(=O)[C@H](CCC(=O)O)NC(=O)[C@H](CCC(=O)O)NC(=O)[C@@H]1CCCN1C(=O)[C@H](CO)NC(=O)[C@H](C)NC(=O)[C@H](CC(=O)O)NC(=O)[C@H](CCCCN)NC(=O)CNC(=O)[C@@H]1CCCN1C(=O)[C@H](C)NC(=O)[C@H](CCC(=O)O)NC(=O)[C@@H]1CCCN1C(=O)[C@H](CCCCN)NC(=O)[C@@H]1CCCN1)C(=O)N[C@@H](CC(N)=O)C(=O)N[C@@H](Cc1c[nH]c2ccccc12)C(=O)N[C@@H](CC(C)C)C(=O)N[C@H](C(=O)N[C@@H](CCCNC(=N)N)C(=O)N[C@@H](CCC(N)=O)C(=O)N[C@@H](CCCNC(=N)N)C(=O)N(C)[C@@H](Cc1ccc(O)cc1)C(N)=O)[C@@H](C)O` [Compound A9], the “NPY4R pEC50” value at human Y4 receptor is “inactive”. In addition, the EC50 on human Y2 receptor was 0.251 nM. For `CC(C)C[C@H](NC(=O)[C@H](CC(=O)O)NC(=O)[C@H](CCCCN)NC(=O)[C@H](Cc1ccc(O)cc1)NC(=O)[C@H](Cc1ccc(O)cc1)NC(=O)[C@H](CCCNC(=N)N)NC(=O)[C@H](CC(=O)O)NC(=O)[C@H](Cc1c[nH]c2ccccc12)NC(=O)[C@H](CCC(=O)O)NC(=O)[C@H](CCCCN)NC(=O)[C@@H]1CCCN1C(=O)[C@H](CO)NC(=O)[C@H](C)NC(=O)[C@H](CC(=O)O)NC(=O)[C@H](CCC(=O)O)NC(=O)CNC(=O)[C@@H]1CCCN1C(=O)[C@H](CCCCNC(=O)CC[C@H](NC(=O)CC[C@H](NC(=O)CCCCCCCCCCCCCCCCCCC(=O)O)C(=O)O)C(=O)O)NC(=O)[C@H](CCC(=O)O)NC(=O)[C@@H]1CCCN1C(=O)[C@H](CCCCN)NC(=O)[C@@H]1CCCN1)C(=O)N[C@@H](CCCNC(=N)N)C(=O)N[C@@H](Cc1c[nH]cn1)C(=O)N[C@@H](Cc1ccc(O)cc1)C(=O)N[C@@H](CC(C)C)C(=O)N[C@@H](CC(N)=O)C(=O)N[C@@H](Cc1c[nH]c2ccccc12)C(=O)N[C@@H](CC(C)C)C(=O)N[C@H](C(=O)N[C@@H](CCCNC(=N)N)C(=O)N[C@@H](CCC(N)=O)C(=O)N[C@@H](CCCNC(=N)N)C(=O)N[C@@H](Cc1ccccc1)C(N)=O)[C@@H](C)O` [Compound A78], the results for the EC50 on human Y5 receptor and at human Y2 receptor were 3.16 nM and 0.0631 nM, respectively.

These data come from patent US12122816B2, “Long acting peptide tyrosine tyrosine (PYY) analogs and methods of use” (Intarcia Therapeutics, Inc., priority 2020, dated 2024).
